In this assay the target is α-glucosidase (Saccharomyces cerevisiae, UniProt P53341). Type of assay: biochemical. On the procedure: Inspection of α-glucosidase inhibition was made by using protocol mentioned in literature. 10 µl (0.057 units) of purified enzyme, 10 µl (0.5 mM) of the test compound and 70 µl (50 mM) of sodium phosphate buffer (pH = 6.8) were collected in a 96-well plate. Pre-incubation for 10 min at 37 °C was performed. Pre-reading was done at 400 nm. 10 µl (0.5 mM) of p-nitrophenyl glucopyranoside were added as a substrate. […] The collection of all data was made thrice. The formula given above allowed to calculate % of inhibition.

These results are taken from PMC12895000, “Structural and computational supported development of 2,5-disubstituted-1,3,4-oxadiazole analogues as active LOX, urease, and α-glucosidase inhibitors” (Scientific Reports, 2026).

α-glucosidase, sequence (P53341 whole entry): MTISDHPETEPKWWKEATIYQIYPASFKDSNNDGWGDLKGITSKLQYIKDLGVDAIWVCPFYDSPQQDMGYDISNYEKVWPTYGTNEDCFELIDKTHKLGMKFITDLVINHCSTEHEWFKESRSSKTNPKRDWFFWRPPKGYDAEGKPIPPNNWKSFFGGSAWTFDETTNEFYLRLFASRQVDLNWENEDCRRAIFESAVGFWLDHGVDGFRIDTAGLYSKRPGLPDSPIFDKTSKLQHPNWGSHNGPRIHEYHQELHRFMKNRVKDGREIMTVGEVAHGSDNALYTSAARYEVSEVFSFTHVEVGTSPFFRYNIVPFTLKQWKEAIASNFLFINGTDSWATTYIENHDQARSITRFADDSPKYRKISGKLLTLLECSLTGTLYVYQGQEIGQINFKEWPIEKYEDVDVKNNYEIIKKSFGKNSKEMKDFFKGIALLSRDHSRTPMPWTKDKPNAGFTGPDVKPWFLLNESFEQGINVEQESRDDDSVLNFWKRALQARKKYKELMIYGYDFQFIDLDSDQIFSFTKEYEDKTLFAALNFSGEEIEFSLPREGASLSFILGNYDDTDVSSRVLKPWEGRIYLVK

In the case of `C[C@H]1O[C@H](O[C@H]2[C@H](O)[C@@H](O)[C@@H](O[C@H]3[C@H](O)[C@@H](O)C(O)O[C@@H]3CO)O[C@@H]2CO)[C@H](O)[C@@H](O)[C@@H]1N[C@H]1C=C(CO)[C@@H](O)[C@H](O)[C@H]1O` (stereo partly shown) [Acarbose], the “α-Glucosidase Inhibition (%) at 0.5 Mm” value turned out to be 65.73 ± 1.93%.
